Values of other authors in patent US7741050B2, “Identification of agonistic autoantibodies” (Max-Delbrueck-Centrum fuer Molkulare Medizin, priority 2002, dated 2010).

Biological target: T1, AT1 receptor of cultivated cardiomyocytes (Rattus norvegicus, UniProt P25095)
T1 construct: can stimulate the AT1 receptor of cultivated cardiomyocytes; endogenous in cells; host or cells: primary cultivated cardiomyocytes of newborn rats
T1 sequence (P25095 1-359): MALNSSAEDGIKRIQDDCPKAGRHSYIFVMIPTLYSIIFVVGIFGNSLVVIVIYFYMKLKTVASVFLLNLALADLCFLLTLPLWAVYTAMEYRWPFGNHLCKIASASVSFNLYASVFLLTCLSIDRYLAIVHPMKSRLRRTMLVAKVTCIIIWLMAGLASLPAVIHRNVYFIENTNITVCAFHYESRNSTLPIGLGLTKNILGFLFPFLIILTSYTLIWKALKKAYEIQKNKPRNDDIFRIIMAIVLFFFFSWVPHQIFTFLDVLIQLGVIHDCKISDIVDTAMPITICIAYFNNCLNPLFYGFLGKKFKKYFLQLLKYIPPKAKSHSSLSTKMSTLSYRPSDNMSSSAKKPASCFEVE
Conditions: Losartan 1 μM added to cardiomyocytes stimulated by antibodies of preeclamptic women; cited from earlier work

CCCCc1nc(Cl)c(CO)n1Cc1ccc(-c2ccccc2-c2nn[nH]n2)cc1 [Losartan]
beats per minute: reduced
